Assay results from publication PMC6874179, “Development of Macrocycle Kinase Inhibitors for ALK2 Using Fibrodysplasia Ossificans Progressiva‐Derived Endothelial Cells” (JBMR Plus, 2019).

How the values were obtained:
Assay in all cases: Proqinase Kinase profiling
Type in all cases: biochemical
Conditions in all cases: read-out: % inhibition at 100nM
HCK = target: T1, HCK (Homo sapiens, UniProt P08631)
T1 construct: purchased DiscoverX

STK25 = target: T2, STK25 (Homo sapiens, UniProt O00506)
T2 construct: purchased DiscoverX

NEK6 = target: T3, NEK6 (Homo sapiens, UniProt Q9HC98)
T3 construct: purchased DiscoverX

DYRK4 = target: T4, DYRK4 (Homo sapiens, UniProt Q9NR20)
T4 construct: purchased DiscoverX

ALK_F1174S = target: T5, ALK_F1174S (Homo sapiens, UniProt Q9UM73, F1174S)
T5 construct: purchased DiscoverX

CLK2 = target: T6, CLK2 (Homo sapiens, UniProt P49760)
T6 construct: purchased DiscoverX

CAMK2D = target: T7, CAMK2D (Homo sapiens, UniProt Q13557)
T7 construct: purchased DiscoverX

PDGFRA_V561D = target: T8, PDGFRA_V561D (Homo sapiens, UniProt P16234, V561D)
T8 construct: purchased DiscoverX

MET_Y1230D = target: T9, MET_Y1230D (Homo sapiens, UniProt P08581, Y1230D)
T9 construct: purchased DiscoverX

ACVRL1 = target: T10, ACVRL1 (Homo sapiens, UniProt P37023)
T10 construct: purchased DiscoverX

EPHB1 = target: T11, EPHB1 (Homo sapiens, UniProt P54762)
T11 construct: purchased DiscoverX

INSRR = target: T12, INSRR (Homo sapiens, UniProt P14616)
T12 construct: purchased DiscoverX

NLK = target: T13, NLK (Homo sapiens, UniProt Q9UBE8)
T13 construct: purchased DiscoverX

NEK4 = target: T14, NEK4 (Homo sapiens, UniProt P51957)
T14 construct: purchased DiscoverX

WNK2 = target: T15, WNK2 (Homo sapiens, UniProt Q9Y3S1)
T15 construct: purchased DiscoverX

PRKCZ = target: T16, PRKCZ (Homo sapiens, UniProt Q05513)
T16 construct: purchased DiscoverX

RPS6KA6 = target: T17, RPS6KA6 (Homo sapiens, UniProt Q9UK32)
T17 construct: purchased DiscoverX

MET_Y1230H = target: T18, MET_Y1230H (Homo sapiens, UniProt P08581, Y1230H)
T18 construct: purchased DiscoverX

PRKCA = target: T19, PRKCA (Homo sapiens, UniProt P17252)
T19 construct: purchased DiscoverX

FGR = target: T20, FGR (Homo sapiens, UniProt P09769)
T20 construct: purchased DiscoverX

MAPK10 = target: T21, MAPK10 (Homo sapiens, UniProt P53779)
T21 construct: purchased DiscoverX

KIT_V559D_T670I = target: T22, KIT_V559D_T670I (Homo sapiens, UniProt P10721, T670I/V559D)
T22 construct: purchased DiscoverX

ACVR2B = target: T23, ACVR2B (Homo sapiens, UniProt Q13705)
T23 construct: T7 phage fusion (or DNA tag for qPCR if made in HEK-293); purchased DiscoverX; host or cells: E. coli (T7 phage) or HEK-293

FRAP1 = target: T24, FRAP1 (Homo sapiens, UniProt P42345)
T24 construct: purchased DiscoverX

MELK = target: T25, MELK (Homo sapiens, UniProt Q14680)
T25 construct: purchased DiscoverX

GSK3A = target: T26, GSK3A (Homo sapiens, UniProt P49840)
T26 construct: purchased DiscoverX

DYRK2 = target: T27, DYRK2 (Homo sapiens, UniProt Q92630)
T27 construct: purchased DiscoverX

ZAK = target: T28, ZAK (Homo sapiens, UniProt Q9NYL2)
T28 construct: purchased DiscoverX

MET_D1228H = target: T29, MET_D1228H (Homo sapiens, UniProt P08581, D1228H)
T29 construct: purchased DiscoverX

MET = target: T30, MET (Homo sapiens, UniProt P08581)
T30 construct: purchased DiscoverX

BRAF = target: T31, BRAF (Homo sapiens, UniProt P15056)
T31 construct: purchased DiscoverX

ABL1_G250E = target: T32, ABL1_G250E (Homo sapiens, UniProt P00519, G250E)
T32 construct: purchased DiscoverX

ALK_L1196M = target: T33, ALK_L1196M (Homo sapiens, UniProt Q9UM73, L1196M)
T33 construct: purchased DiscoverX

PBK = target: T34, PBK (Homo sapiens, UniProt Q96KB5)
T34 construct: purchased DiscoverX

RET_R749T = target: T35, RET_R749T (Homo sapiens, UniProt P07949, R749T)
T35 construct: purchased DiscoverX

NEK7 = target: T36, NEK7 (Homo sapiens, UniProt Q8TDX7)
T36 construct: purchased DiscoverX

LRRK2_I2020T = target: T37, LRRK2_I2020T (Homo sapiens, UniProt Q5S007, I2020T)
T37 construct: purchased DiscoverX

STK16 = target: T38, STK16 (Homo sapiens, UniProt O75716)
T38 construct: purchased DiscoverX

PKN2 = target: T39, PKN2 (Homo sapiens, UniProt Q16513)
T39 construct: purchased DiscoverX

EPHA3 = target: T40, EPHA3 (Homo sapiens, UniProt P29320)
T40 construct: purchased DiscoverX

PRKCB1_II = target: T41, PRKCB1_II (Homo sapiens, UniProt P05771)
T41 construct: purchased DiscoverX

CSF1R = target: T42, CSF1R (Homo sapiens, UniProt P07333)
T42 construct: purchased DiscoverX

T13 sequence (Q9UBE8 whole entry): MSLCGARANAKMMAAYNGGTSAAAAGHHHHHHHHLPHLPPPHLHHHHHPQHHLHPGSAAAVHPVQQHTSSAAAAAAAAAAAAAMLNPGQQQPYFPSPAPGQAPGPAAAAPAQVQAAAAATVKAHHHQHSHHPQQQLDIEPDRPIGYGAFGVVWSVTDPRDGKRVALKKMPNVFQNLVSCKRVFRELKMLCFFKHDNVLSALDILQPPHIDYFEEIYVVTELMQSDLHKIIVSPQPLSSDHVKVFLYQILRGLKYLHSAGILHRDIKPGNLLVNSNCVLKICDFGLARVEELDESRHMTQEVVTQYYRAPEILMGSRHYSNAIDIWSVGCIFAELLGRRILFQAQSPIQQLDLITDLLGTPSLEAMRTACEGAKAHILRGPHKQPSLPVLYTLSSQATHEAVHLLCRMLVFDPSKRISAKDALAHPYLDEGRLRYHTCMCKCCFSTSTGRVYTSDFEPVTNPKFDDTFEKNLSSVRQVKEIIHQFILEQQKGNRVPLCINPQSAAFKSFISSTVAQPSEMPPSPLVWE
T2 sequence (O00506 whole entry): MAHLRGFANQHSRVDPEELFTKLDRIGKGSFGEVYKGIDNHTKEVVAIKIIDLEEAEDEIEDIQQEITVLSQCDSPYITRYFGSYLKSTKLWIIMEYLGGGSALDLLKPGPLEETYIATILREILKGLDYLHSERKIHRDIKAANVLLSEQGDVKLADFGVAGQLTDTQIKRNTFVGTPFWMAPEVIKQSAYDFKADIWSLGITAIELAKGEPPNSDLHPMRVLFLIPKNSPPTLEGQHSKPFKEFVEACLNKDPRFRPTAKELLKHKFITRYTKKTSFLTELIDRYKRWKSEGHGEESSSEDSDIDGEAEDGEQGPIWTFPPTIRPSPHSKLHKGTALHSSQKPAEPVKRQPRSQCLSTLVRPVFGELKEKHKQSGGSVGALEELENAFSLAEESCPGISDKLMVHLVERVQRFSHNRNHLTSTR
T4 sequence (Q9NR20 whole entry): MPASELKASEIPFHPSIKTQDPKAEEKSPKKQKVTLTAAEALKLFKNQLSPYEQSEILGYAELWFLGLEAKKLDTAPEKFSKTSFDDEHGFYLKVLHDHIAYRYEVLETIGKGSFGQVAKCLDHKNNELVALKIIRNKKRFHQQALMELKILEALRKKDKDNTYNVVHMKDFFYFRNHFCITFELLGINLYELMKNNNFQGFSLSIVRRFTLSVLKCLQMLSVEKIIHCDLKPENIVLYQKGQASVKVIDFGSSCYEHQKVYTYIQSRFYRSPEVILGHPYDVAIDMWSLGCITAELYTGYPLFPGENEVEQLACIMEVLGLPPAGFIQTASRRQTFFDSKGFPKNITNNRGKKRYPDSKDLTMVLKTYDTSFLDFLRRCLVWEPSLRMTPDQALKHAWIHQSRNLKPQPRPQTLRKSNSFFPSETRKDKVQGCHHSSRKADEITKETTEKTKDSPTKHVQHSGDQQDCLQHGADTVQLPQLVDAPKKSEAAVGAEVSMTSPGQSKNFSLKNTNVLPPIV
T41 sequence (P05771 1-673 isoform P05771-2): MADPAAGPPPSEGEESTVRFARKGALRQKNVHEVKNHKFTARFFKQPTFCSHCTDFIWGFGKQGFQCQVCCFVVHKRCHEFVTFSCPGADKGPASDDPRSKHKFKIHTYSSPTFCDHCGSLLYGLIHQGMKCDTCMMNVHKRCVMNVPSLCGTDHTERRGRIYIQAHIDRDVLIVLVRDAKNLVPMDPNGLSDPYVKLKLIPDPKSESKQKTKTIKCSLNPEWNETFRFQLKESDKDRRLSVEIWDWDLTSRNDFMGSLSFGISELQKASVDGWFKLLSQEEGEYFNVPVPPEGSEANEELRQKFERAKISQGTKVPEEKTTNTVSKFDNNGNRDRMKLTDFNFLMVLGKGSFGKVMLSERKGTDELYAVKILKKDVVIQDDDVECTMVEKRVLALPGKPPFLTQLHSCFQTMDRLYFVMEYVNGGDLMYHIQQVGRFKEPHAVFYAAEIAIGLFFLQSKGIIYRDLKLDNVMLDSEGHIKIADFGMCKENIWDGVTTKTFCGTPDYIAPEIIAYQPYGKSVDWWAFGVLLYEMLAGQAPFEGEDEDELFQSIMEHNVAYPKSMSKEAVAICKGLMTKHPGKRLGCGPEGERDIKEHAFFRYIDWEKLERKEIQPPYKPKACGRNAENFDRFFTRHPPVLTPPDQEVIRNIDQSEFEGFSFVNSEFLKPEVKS
T12 sequence (P14616 27-1297): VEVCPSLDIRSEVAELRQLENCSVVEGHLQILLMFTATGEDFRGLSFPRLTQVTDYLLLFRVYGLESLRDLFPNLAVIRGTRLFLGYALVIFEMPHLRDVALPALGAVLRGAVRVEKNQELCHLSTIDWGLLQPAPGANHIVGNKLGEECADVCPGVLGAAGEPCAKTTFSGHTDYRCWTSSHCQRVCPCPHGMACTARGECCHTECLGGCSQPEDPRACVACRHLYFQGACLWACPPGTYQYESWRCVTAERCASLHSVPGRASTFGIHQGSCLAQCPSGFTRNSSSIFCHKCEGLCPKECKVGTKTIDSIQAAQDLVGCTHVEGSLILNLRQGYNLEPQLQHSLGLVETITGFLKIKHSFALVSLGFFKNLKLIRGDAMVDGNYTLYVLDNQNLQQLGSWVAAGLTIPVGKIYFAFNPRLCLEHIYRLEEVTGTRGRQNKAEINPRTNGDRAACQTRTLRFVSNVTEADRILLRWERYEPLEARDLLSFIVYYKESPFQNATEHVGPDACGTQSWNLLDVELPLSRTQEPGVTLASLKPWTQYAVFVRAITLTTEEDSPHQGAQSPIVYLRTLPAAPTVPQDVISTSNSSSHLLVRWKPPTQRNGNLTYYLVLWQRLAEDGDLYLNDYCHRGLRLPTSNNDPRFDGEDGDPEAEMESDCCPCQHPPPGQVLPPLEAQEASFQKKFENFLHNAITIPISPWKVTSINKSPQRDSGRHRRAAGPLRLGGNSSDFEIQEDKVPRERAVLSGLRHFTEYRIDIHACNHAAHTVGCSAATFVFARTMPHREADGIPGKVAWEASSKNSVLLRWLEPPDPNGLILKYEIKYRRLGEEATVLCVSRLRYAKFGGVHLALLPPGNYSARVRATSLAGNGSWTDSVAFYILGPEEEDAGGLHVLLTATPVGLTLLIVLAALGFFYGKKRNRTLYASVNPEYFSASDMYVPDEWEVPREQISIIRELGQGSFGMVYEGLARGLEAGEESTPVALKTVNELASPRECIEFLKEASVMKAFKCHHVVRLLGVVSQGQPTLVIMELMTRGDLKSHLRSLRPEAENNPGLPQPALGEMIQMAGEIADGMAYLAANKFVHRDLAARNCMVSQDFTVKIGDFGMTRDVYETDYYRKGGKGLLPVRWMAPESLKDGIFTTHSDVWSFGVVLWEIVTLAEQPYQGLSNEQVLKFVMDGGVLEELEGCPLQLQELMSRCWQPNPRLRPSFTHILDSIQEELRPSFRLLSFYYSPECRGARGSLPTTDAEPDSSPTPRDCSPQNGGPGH
T36 sequence (Q8TDX7 whole entry): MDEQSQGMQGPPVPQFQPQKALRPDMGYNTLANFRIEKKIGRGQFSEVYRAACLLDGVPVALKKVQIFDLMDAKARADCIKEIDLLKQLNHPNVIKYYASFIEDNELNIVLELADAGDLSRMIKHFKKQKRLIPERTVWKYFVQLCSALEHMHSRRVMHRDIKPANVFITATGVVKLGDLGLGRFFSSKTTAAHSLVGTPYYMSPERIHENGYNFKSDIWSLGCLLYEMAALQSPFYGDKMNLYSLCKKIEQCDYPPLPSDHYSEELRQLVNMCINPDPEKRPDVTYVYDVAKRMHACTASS
T16 sequence (Q05513 whole entry): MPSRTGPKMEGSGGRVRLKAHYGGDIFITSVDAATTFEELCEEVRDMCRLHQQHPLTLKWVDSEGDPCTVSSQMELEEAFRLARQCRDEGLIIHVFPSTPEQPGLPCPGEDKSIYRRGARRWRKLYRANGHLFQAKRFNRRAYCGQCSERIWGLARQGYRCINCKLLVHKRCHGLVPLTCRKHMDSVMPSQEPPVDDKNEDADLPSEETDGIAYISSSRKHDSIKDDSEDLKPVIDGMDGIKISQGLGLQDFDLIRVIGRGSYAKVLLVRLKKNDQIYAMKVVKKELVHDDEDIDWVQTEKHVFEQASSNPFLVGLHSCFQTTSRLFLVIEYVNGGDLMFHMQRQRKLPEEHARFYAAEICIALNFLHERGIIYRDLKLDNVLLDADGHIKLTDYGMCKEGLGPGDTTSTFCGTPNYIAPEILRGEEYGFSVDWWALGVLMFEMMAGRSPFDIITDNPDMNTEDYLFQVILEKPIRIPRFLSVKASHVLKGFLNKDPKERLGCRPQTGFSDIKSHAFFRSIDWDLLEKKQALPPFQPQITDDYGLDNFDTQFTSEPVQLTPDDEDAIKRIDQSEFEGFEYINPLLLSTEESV
T21 sequence (P53779 whole entry): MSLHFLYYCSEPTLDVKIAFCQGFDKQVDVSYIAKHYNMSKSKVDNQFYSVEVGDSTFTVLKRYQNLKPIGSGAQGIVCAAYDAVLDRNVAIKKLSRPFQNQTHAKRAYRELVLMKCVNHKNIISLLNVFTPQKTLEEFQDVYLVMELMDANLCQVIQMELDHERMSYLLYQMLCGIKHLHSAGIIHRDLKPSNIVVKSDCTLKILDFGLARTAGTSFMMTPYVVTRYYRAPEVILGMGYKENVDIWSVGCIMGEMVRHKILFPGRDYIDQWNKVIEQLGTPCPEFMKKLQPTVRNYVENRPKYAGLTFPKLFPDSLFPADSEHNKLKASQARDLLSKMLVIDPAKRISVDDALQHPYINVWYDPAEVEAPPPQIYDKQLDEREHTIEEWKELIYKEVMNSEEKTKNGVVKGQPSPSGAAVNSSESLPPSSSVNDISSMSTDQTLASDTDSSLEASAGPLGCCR

Clc1cc2cc(c1)-c1cnn3ccc(nc13)NCCOCCO2 [OD36]
inhibition at 0.1 µM (HCK): 29% | inhibition at 0.1 µM (STK25): 1% | inhibition at 0.1 µM (NEK6): -7% | inhibition at 0.1 µM (DYRK4): 14% | inhibition at 0.1 µM (ALK_F1174S): 13% | inhibition at 0.1 µM (CLK2): 10% | inhibition at 0.1 µM (CAMK2D): 6% | inhibition at 0.1 µM (PDGFRA_V561D): -1% | inhibition at 0.1 µM (MET_Y1230D): -6% | inhibition at 0.1 µM (ACVRL1): 88% | inhibition at 0.1 µM (EPHB1): -2% | inhibition at 0.1 µM (INSRR): 0% | inhibition at 0.1 µM (NLK): 33% | inhibition at 0.1 µM (NEK4): 2% | inhibition at 0.1 µM (WNK2): 1% | inhibition at 0.1 µM (PRKCZ): -3% | inhibition at 0.1 µM (RPS6KA6): 8% | inhibition at 0.1 µM (MET_Y1230H): -3% | inhibition at 0.1 µM (PRKCA): 26% | inhibition at 0.1 µM (FGR): 26% | inhibition at 0.1 µM (MAPK10): 17% | inhibition at 0.1 µM (KIT_V559D_T670I): 7% | inhibition at 0.1 µM (ACVR2B): 90% | inhibition at 0.1 µM (FRAP1): 14% | inhibition at 0.1 µM (MELK): 21% | inhibition at 0.1 µM (GSK3A): 6% | inhibition at 0.1 µM (DYRK2): 2% | inhibition at 0.1 µM (ZAK): 70% | inhibition at 0.1 µM (MET_D1228H): 8% | inhibition at 0.1 µM (MET): 3% | inhibition at 0.1 µM (BRAF): 20% | inhibition at 0.1 µM (ABL1_G250E): 5% | inhibition at 0.1 µM (ALK_L1196M): -7% | inhibition at 0.1 µM (PBK): 19% | inhibition at 0.1 µM (RET_R749T): 30% | inhibition at 0.1 µM (NEK7): 5% | inhibition at 0.1 µM (LRRK2_I2020T): 49% | inhibition at 0.1 µM (STK16): 12% | inhibition at 0.1 µM (PKN2): 8% | inhibition at 0.1 µM (EPHA3): 12% | inhibition at 0.1 µM (PRKCB1_II): -5% | inhibition at 0.1 µM (CSF1R): 16%

Cc1cc2cc(c1)-c1cnn3ccc(nc13)NCCNC(=O)CCN(C)C2 [OD52]
inhibition at 0.1 µM (HCK): 0% | inhibition at 0.1 µM (STK25): 2% | inhibition at 0.1 µM (NEK6): -12% | inhibition at 0.1 µM (DYRK4): 4% | inhibition at 0.1 µM (ALK_F1174S): -18% | inhibition at 0.1 µM (CLK2): 1% | inhibition at 0.1 µM (CAMK2D): -9% | inhibition at 0.1 µM (PDGFRA_V561D): 12% | inhibition at 0.1 µM (MET_Y1230D): -12% | inhibition at 0.1 µM (ACVRL1): 89% | inhibition at 0.1 µM (EPHB1): -26% | inhibition at 0.1 µM (INSRR): 6% | inhibition at 0.1 µM (NLK): 1% | inhibition at 0.1 µM (NEK4): -3% | inhibition at 0.1 µM (WNK2): 17% | inhibition at 0.1 µM (PRKCZ): 4% | inhibition at 0.1 µM (RPS6KA6): 0% | inhibition at 0.1 µM (MET_Y1230H): -20% | inhibition at 0.1 µM (PRKCA): 8% | inhibition at 0.1 µM (FGR): 0% | inhibition at 0.1 µM (MAPK10): 1% | inhibition at 0.1 µM (KIT_V559D_T670I): -8% | inhibition at 0.1 µM (ACVR2B): 17% | inhibition at 0.1 µM (FRAP1): -1% | inhibition at 0.1 µM (MELK): 15% | inhibition at 0.1 µM (GSK3A): 1% | inhibition at 0.1 µM (DYRK2): 9% | inhibition at 0.1 µM (ZAK): 6% | inhibition at 0.1 µM (MET_D1228H): -11% | inhibition at 0.1 µM (MET): -5% | inhibition at 0.1 µM (BRAF): 16% | inhibition at 0.1 µM (ABL1_G250E): 6% | inhibition at 0.1 µM (ALK_L1196M): -6% | inhibition at 0.1 µM (PBK): -5% | inhibition at 0.1 µM (RET_R749T): 36% | inhibition at 0.1 µM (NEK7): 5% | inhibition at 0.1 µM (LRRK2_I2020T): 22% | inhibition at 0.1 µM (STK16): 9% | inhibition at 0.1 µM (PKN2): -3% | inhibition at 0.1 µM (EPHA3): -20% | inhibition at 0.1 µM (PRKCB1_II): -7% | inhibition at 0.1 µM (CSF1R): -1%
